This passage reports IC50 results from patent US20260184707A1, “PHARMACEUTICAL COMPOUNDS FOR THE TREATMENT OF COMPLEMENT MEDIATED DISORDERS” (ALEXION PHARMACEUTICALS, INC., priority 2022, published 2026).

The structures appear in SMILES notation. Where only a bound is given, the exact number is not on record here.

This assay addresses T1, Human complement C1s enzyme (Homo sapiens, UniProt P09871).
T1 construct: purified from human serum, Complement Technology, Inc; purchased Complement Technology, Inc; host or cells: human serum (plasma-derived native protein)
T1 sequence (P09871 438-688 limits assumed): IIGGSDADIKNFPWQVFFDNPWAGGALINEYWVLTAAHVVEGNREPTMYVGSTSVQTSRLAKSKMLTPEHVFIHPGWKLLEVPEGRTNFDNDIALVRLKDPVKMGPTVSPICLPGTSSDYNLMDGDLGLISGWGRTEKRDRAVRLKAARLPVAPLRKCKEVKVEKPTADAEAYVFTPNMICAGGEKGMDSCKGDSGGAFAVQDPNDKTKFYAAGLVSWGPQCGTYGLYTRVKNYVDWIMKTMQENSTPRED
T1 sequence (P09871 16-437 partner limits assumed): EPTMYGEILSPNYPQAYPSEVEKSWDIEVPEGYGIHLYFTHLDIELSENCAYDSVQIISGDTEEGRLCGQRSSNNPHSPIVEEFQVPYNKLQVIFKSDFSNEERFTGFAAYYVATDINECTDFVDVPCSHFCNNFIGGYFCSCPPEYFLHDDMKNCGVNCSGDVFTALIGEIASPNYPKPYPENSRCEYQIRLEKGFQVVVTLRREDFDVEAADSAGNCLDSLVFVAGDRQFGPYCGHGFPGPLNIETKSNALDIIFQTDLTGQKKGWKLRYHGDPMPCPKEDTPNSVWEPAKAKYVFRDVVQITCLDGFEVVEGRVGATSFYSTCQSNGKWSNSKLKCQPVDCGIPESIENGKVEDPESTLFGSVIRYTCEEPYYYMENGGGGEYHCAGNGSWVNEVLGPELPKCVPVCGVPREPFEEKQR
Briefly: Human C1s enzyme assay. Conditions: human complement C1s enzyme 1.16 nM, substrate Z-L-Lys-SBzl, A405; read-out: IC50 (Stars). Format: biochemical. The method in brief: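 Serum-purified human C1s (1.16 nM final) preincubated 5 min at room temperature with compound in 50 mM Tris, 1 M NaCl, pH 7.5. Z-L-Lys-SBzl and DTNB added at 100 μM each; A405 recorded every 30 s. IC50 from nonlinear regression of reaction rates versus compound concentration.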

As usually defined, the IC50 is the point on the concentration scale where inhibition reaches its midpoint. With `O=C(Cn1cncc(NCc2ccc3oc4ccccc4c3c2)c1=O)NCc1cc2cnccc2[nH]1` [Compound 246, 2-[5-(Dibenzofuran-2-ylmethylamino)-6-oxo-pyrimidin-1-yl]-N-(1H-pyrrolo[3,2-c]pyridine-2-ylmethyl)acetamide], the IC50 is below 100 nM. The same measure for `Cc1ncc(NCc2ccc3oc4ccccc4c3c2)c(=O)n1CC(=O)NCc1cc2cnccc2[nH]1` [Compound 247, N-((1H-pyrrolo[3,2-c]pyridin-2-yl)methyl)-2-(5-((dibenzo [b,d]furan-2-ylmethyl)amino)-2-methyl-6-oxopyrimidin-1(6H)-yl)acetamide]: below 100 nM; for `COc1ccc(-c2ncc(N[C@H](C)c3ccc4oc5ccccc5c4c3)c(=O)n2CC(=O)NCc2cc3cnccc3[nH]2)cc1` [Compound 248, (R)-N-((1H-pyrrolo[3,2-c]pyr-idin-2-yl)methyl)-2-(5-((1-(dibenzo[b,d]furan-2-yl)ethyl)-amino)-2-(4-methoxyphenyl)-6-oxopyrimidin-1(6H)-yl)-acetamide]: below 100 nM; for `CO[C@@H]1CO[C@H]2[C@@H]1OC[C@H]2Oc1ccc(-c2ncc(NC(=O)c3ccc(-c4ccccc4)s3)c(=O)n2CC(=O)NCc2cc3cnccc3[nH]2)cc1` [Compound 249, N-(1-(2-(((1H-pyrrolo[3,2-c]pyridine-2-yl)methyl)amino)-2-oxoethyl)-2-(4-(((3R,3aR,6R,6aR)-6-methoxyhexahydrofuro[3,2-b]furan-3-yl)oxy)phenyl)-6-oxo-1,6-dihydropyrimidin-5-yl)-5-phenylthiophene-2-carboxamide]: below 100 nM. With `O=C(Cn1c(-c2ccccc2)ncc(NCc2ccc(-c3ccccc3F)cc2)c1=O)NCc1cc2cnccc2[nH]1` [Compound 250, N-((1H-pyrrolo[3,2-c]pyridin-2-yl)methyl)-2-(5-(((2′-fluoro-[1,1′-biphenyl]-4-yl)methyl)amino)-6-oxo-2-phenylpyrimidin-1(6H)-yl)acetamide] the figure was below 100 nM; with `O=C(Cn1c(-c2cccs2)ncc(NCc2ccc3oc4ccccc4c3c2)c1=O)NCc1cc2cnccc2[nH]1` [Compound 251, N-((1H-pyrrolo[3,2-c]pyridin-2-yl)methyl)-2-(5-((dibenzo [b,d]furan-2-ylmethyl)amino)-6-oxo-2-(thiophen-2-yl)pyrimi-din-1(6H)-yl)acetamide], below 100 nM; with `O=C(Cn1c(-c2ccccn2)ncc(NCc2ccc3oc4ccccc4c3c2)c1=O)NCc1cc2cnccc2[nH]1` [Compound 252, N-((1H-pyrrolo[3,2-c]pyridin-2-yl)methyl)-2-(5-((dibenzo [b,d]furan-2-ylmethyl)amino)-6-oxo-2-(pyridin-2-yl)pyrimi-din-1(6H)-yl)acetamide], below 100 nM.

In the case of `O=C(Cn1c(C2CCCC2)ncc(NCc2ccc3oc4ccccc4c3c2)c1=O)NCc1cc2cnccc2[nH]1` [Compound 253, N-((1H-pyrrolo[3,2-c]pyridine-2-yl)methyl)-2-(2-cyclopentyl-5-((dibenzo[b,d]furan-2-ylmethyl)amino)-6-oxopyrimidin-1(6H)-yl)acetamide], the half-maximal inhibitory concentration (IC50) was below 100 nM. Regarding `O=C(Cn1c(-c2ccccc2)ncc(NC(=O)C2CCC(c3ccccc3)CC2)c1=O)NCc1cc2cnccc2[nH]1` (stereo not shown) [Compound 254, N-(1-(2-(((1H-pyrrolo[3,2-c]pyridin-2-yl)methyl)amino)-2-oxoethyl)-6-oxo-2-phenyl-1,6-dihydropyrimidin-5-yl)-4-phen-ylcyclohexane-1-carboxamide], the 50% inhibitory concentration (IC50) is below 100 nM. As for `O=C(Cn1c(-c2ccc(S(F)(F)(F)(F)F)cc2)ncc(NCc2ccc3c(c2)-c2ccccc2C3(F)F)c1=O)NCc1cc2cnccc2[nH]1` [Compound 255, N-((1H-pyrrolo[3,2-c]pyridine-2-yl)methyl)-2-(5-(((9,9-difluoro-9H-fluoren-3-yl)methyl)amino)-6-oxo-2-(4-(pentafluoro-λ^6-sulfaneyl)phenyl)pyrimidin-1(6H)-yl)acetamide], the IC50 is below 100 nM. The same measure for `O=C(Cn1c(-c2ccccc2)ncc(NC(=O)c2ccc(-c3ccccc3)s2)c1=O)NCc1ccc(Cl)cc1` [Compound 256, N-(1-(2-((4-chlorobenzyl)-amino)-2-oxoethyl)-6-oxo-2-phenyl-1,6-dihydropyrimidin-5-yl)-5-phenylthiophene-2-carboxamide]: above 1000 nM; for `COc1ccccc1-c1ccc(CNc2cnc(-c3ccccc3)n(CC(=O)NCc3cc4cnccc4[nH]3)c2=O)cc1` [Compound 257, N-((1H-pyrrolo[3,2-c]pyridin-2-yl)methyl)-2-(5-(((2′-meth-oxy-[1,1′-biphenyl]-4-yl)meth-yl)amino)-6-oxo-2-phenylpyr-imidin-1(6H)-yl)acetamide]: below 100 nM; for `O=C(Cn1c(-c2ccccc2)ncc(NCc2ccc(-c3ccccc3)s2)c1=O)NCc1cc2cnccc2[nH]1` [Compound 258, N-((1H-pyrrolo[3,2-c]pyridine-2-yl)methyl)-2-(6-oxo-2-phenyl-5-(((5-phenylthiophen-2-yl)methyl)amino)pyrimidin-1(6H)-yl)acetamide]: below 100 nM. The same measure for `O=C(Cn1c(-c2ccccc2)ncc(NCc2ccc3sc4ccccc4c3c2)c1=O)NCc1cc2cnccc2[nH]1` [Compound 259, N-((1H-pyrrolo[3,2-c]pyridin-2-yl)methyl)-2-(5-((dibenzo [b,d]thiophen-2-ylmethyl)-amino)-6-oxo-2-phenylpyrimi-din-1(6H)-yl)acetamide]: below 100 nM; for `O=C(Cn1c(N2CCOCC2)ncc(NCc2ccc3oc4ccccc4c3c2)c1=O)NCc1cc2cnccc2[nH]1` [Compound 260, N-((1H-pyrrolo[3,2-c]pyridin-2-yl)methyl)-2-(5-((dibenzo [b,d]furan-2-ylmethyl)amino)-2-morpholino-6-oxopyrimidin-1(6H)-yl)acetamide]: below 100 nM.

Turning to `O=C(Cn1c(N2CCCCC2)ncc(NCc2ccc3oc4ccccc4c3c2)c1=O)NCc1cc2cnccc2[nH]1` [Compound 261, N-((1H-pyrrolo[3,2-c]pyridin-2-yl)methyl)-2-(5-((dibenzo [b,d]furan-2-ylmethyl)amino)-6-oxo-2-(piperidin-1-yl)pyrimi-din-1(6H)-yl)acetamide], the concentration for half-maximal inhibition (IC50) was below 100 nM. With `CO[C@@H]1CO[C@H]2[C@@H]1OC[C@H]2Oc1ccc(-c2ncc(NC(=O)c3cnc(-c4ccccc4)s3)c(=O)n2CC(=O)NCc2cc3cnccc3[nH]2)cc1` [Compound 262, N-(1-(2-(((1H-pyrrolo[3,2-c]pyridine-2-yl)methyl)amino)-2-oxoethyl)-2-(4-(((3R,3aR,6R,6aR)-6-methoxyhexahydrofuro[3,2-b]furan-3-yl)oxy)phenyl)-6-oxo-1,6-dihydropyrimidin-5-yl)-2-phenylthiazole-5-carboxamide] the figure was below 100 nM; with `O=C(Cn1c(-c2ccc(O[C@@H]3CO[C@H]4[C@@H]3OC[C@H]4O)cc2)ncc(NC(=O)c2cnc(-c3ccccc3)s2)c1=O)NCc1cc2cnccc2[nH]1` [Compound 263, N-(1-(2-(((1H-pyrrolo[3,2-c]pyridine-2-yl)methyl)amino)-2-oxoethyl)-2-(4-(((3R,3aR,6R,6aR)-6-hydroxyhexahydrofuro[3,2-b]furan-3-yl)oxy)phenyl)-6-oxo-1,6-dihydropyrimidin-5-yl)-2-phenylthiazole-5-carboxamide], below 100 nM; with `O=C(Cn1c(-c2ccc(O[C@@H]3CO[C@H]4[C@@H]3OC[C@H]4O)cc2)ncc(NC(=O)c2ccc(-c3ccccc3)s2)c1=O)NCc1cc2cnccc2[nH]1` [Compound 264, N-(1-(2-(((1H-pyrrolo[3,2-c]pyridin-2-yl)methyl)amino)-2-oxoethyl)-2-(4-(((3R,3aR,6R, 6aR)-6-hydroxyhexahydrofuro [3,2-b]furan-3-yl)oxy)phenyl)-6-oxo-1,6-dihydropyrimidin-5-yl)-5-phenylthiophene-2-carboxamide], below 100 nM. Regarding `C[C@H](Nc1cncn(CC(=O)NCc2cc3cnccc3[nH]2)c1=O)c1ccc2oc3ccccc3c2c1` [Compound 265, (S)—N-((1H-pyrrolo[3,2-c]pyridine-2-yl)methyl)-2-(5-((1-(dibenzo[b,d]furan-2-yl)ethyl)amino)-6-oxopyrimidin-1(6H)-yl)acetamide], the 50% inhibitory concentration (IC50) was below 100 nM. In the case of `O=C(NCCOc1nc(-c2ccccc2)ncc1NCc1ccc2oc3ccccc3c2c1)c1cc2cnccc2[nH]1` [Compound 266, N-(2-((5-((dibenzo[b,d]furan-2-ylmethyl)amino)-2-phenyl-pyrimidin-4-yl)oxy)ethyl)-1H-pyrrolo[3,2-c]pyridine-2-carboxamide], the IC50 was above 1000 nM. `O=C(NCCn1c(-c2ccccc2)ncc(NCc2ccc3oc4ccccc4c3c2)c1=O)c1cc2cnccc2[nH]1` [Compound 267, N-(2-(5-((dibenzo[b,d]furan-2-ylmethyl)amino)-6-oxo-2-phenylpyrimidin-1(6H)-yl)-ethyl)-1H-pyrrolo[3,2-c]pyr-idine-2-carboxamide]: the half-maximal inhibitory concentration (IC50) was above 1000 nM.
